Data set [1] has as its system reactive oxygen species (ROS). The experiment in a line: Reduced 2',7'-dichlorofluorescein (DCF) diacetate oxidation assay. The format is cell-based. The settings on record: 48 h. The method, then: For measurements of ROS levels, MCF-7 and T47D cells were seeded at 1×10^3 cells in RPMI 1640 supplemented with 10% FBS and treated with 10^-9 - 10^-6 M X15695 for 48 h. Afterwards, cells were loaded with 10 µM) H2DCF-DA (Thermo Fisher Scientific, Karlsruhe, Germany) in phenol red-free medium for 40 min. Cells were subsequently washed with medium and further incubated in medium for 120 min before analysis of fluorescence at 485 nm excitation and 530 nm emission using a multi-well fluorescence reader (SpectraMax iD3, Molecular Devices with SoftMax Pro 7 software, Biberach an der Riss, Germany). After the DCF assay, cells were frozen at -80°C overnight. After thawing, DNA was stained with a Hoechst dye (10 µg/ml final concentration) for 30 min at room temperature and fluorescence was measured at 352 nm excitation and 454 nm emission in a multi-well fluorescence reader (SpectraMax iD3, Molecular Devices with SoftMax Pro 7 software, Biberach an der Riss, Germany). DCF fluorescent intensities were normalized to Hoechst fluorescent intensities.

Data set [2] relates to BAG1 in a complex with mortalin. The experiment in a line: Co-immunoprecipitation in MCF-7 cells. The settings on record: 1 µM, 48 h. The format is cell-based. The method, then:
(§1) Cells were harvested, washed with PBS, and lysed using NP-40 lysis buffer. Protein A agarose beads (Thermo Fisher Scientific) were mixed with protein G agarose beads (Thermo Fisher Scientific) (4:1) and preincubated overnight at 4°C with anti-p53 or anti-BAG1 or control IgG antibody. Cellular extracts from X15695 treated and untreated cells (1,000 µg) were incubated with antibody-preincubated protein A/G agarose beads for 3 to 4 h at room temperature. The beads with immunoprecipitated proteins were collected at 4°C by centrifugation at 1,000 g for 5 min and washed 4 to 5 times with NP-40 lysis buffer. The immunoprecipitated proteins were eluted by heating in SDS sample buffer for 5 min at 95°C and resolved on SDS-PAGE. Thereafter, they were subjected to Western blot analysis to detect mortalin, BAG1, BAG2, BAG5 and p53. Cellular extracts containing 50 to 70 µg protein from X15695 treated and untreated cells were used as the input control for the targeted proteins.

In another data set the test system is p53/mortalin complex. Kind of data set: Co-immunoprecipitation in MCF-7 cells. The settings on record: 1 µM, 48 h. The data set is classed as cell-based. Here is the method:
as §1

The next data set concerns HeLa. Kind of data set: Clonogenic assay (clonal expansion). The format is cell-based. The settings on record: HeLa (cervical). Here is the method: (§2) Cells were seeded at a density of 1-2×10^3 cells/well in a 6 well plate in RPMI 1640 supplemented with 10% FBS, penicillin (100 u/ml), streptomycin (100 u/ml), and L-glutamine (2 mM). Cells were treated with increasing concentrations of X15695 and cultured for 14 to 21 days. Medium and compounds were exchanged after 7 days. Cells were fixed with methanol/ acetic acid mixture (3:1 v/v) and the formation of colonies was visualized using 0.5% crystal violet (w/v) in 20% methanol (v/v). Plates were scanned in a conventional office scanner (Epson). The area covered by colonies was calculated using the ColonyArea Plugin for ImageJ.

A further data set concerns MCF-7. Kind of data set: Clonogenic assay (clonal expansion). The format is cell-based. Here is the method: as §2
The subject of the next data set is MDA-MB231. The experiment in a line: Clonogenic assay (clonal expansion). The format is cell-based. The settings on record: Homo sapiens, MDA-MB-231; Breast Cancer (MDA-MB231), ER-; inhibition of clonal expansion. The method, then: as §2
The subject of a further data set is U2OS. Kind of data set: Clonogenic assay (clonal expansion). The format is cell-based. The settings on record: U2OS (osteosarcoma). The method, then:
as §2

The subject of another data set is MCF-7 tumors. The experiment in a line: Mouse xenograft experiment, MCF-7. The data set is classed as in vivo. The settings on record: MCF-7 xenograft. The method, then: MCF-7 and LAPC-4 cells (2×10^6) were suspended in 100 µl PBS: Matrigel (Corning NY USA, 1:1) and injected subcutaneously into both flanks of 6-7 weeks old female (for MCF-7 cells) and male (for LAPC-4 cells) athymic nude-Foxn1^nu mice (Envigo RMS GmbH, Düsseldorf, Germany). When tumor volumes were around 50 to100 mm^3, mice were randomized into four groups (7 mice per group) and treated daily by oral gavage as follows: (1) Control group (Vehicle) (corn oil, 1.0% dimethyl sulfoxide (DMSO) and (2) X15695 group, 30 mg per kg body weight) for the MCF-7 tumors or (1) Control group (Vehicle) (corn oil, 1.0% dimethyl sulfoxide (DMSO) (2) enzalutamide (Enza group, 15 mg per kg body weight), (3) X15695 group, 30 mg per kg body weight) and, (4) X15695 group (15 mg per kg body weight) for the LAPC-4 tumors. Body weight and tumor volumes were measured twice a week. Tumor volume was measured with a digital vernier caliper and calculated using the formula vol = length × width × height × 0.5236 and recorded or calculated relative to the starting volume which was nominally set at 100%. After 16 days for the MCF-7 tumors or 42 days for the LAPC-4 tumors, mice were sacrificed and the tumors removed, photographed, and weighed. Percent body weight change was calculated using the following formula: group percent weight change = [(new weight - initial weight)/initial weight] × 100]. Tumors were snap-frozen and stored for Western blot analysis.

In a further data set the test system is ERα. The settings on record: MCF-7 cells, 1 µM for 24 h, then 100 µg/ml cycloheximide; > 120 min in the absence of X15695.
The mark [3] stands for this setting: 30 mg/kg body weight per os daily.
Setting [4] is: Western blot after the treatment period.

The record followed here is patent EP4417202A1, “ANTI-CANCER ACTION OF BAG1-SELECTIVE IMIDAZOPYRIDINE COMPOUNDS IN STEROID HORMONE RECEPTOR-POSITIVE BREAST AND PROSTATE CANCER” (Karlsruher Institut für Technologie, priority 2023, dated 2024).

Procedure for ERα: Thereafter, cells were incubated with the protein synthesis inhibitor cycloheximide (100 µg/ml) and harvested at time points 0, 30, 60, 90 and 120 min. Cells were lysed and used for Western blotting to determine the ERα level at each time point.

By IC50 is commonly meant the concentration that inhibits the measured activity by half. Low readings indicate higher potency, high ones lower potency. Consider `Fc1ccc(-c2cn3cc(C(F)(F)F)cc(Cl)c3n2)cc1` [Compound X15695, 8-Chloro-2-(4-fluorophenyl)-6-(trifluoromethyl)imidazo[1,2-a]pyridine], for which the ROS production entry in data set [1] (MCF-7 cells) is “significant dose-dependent production of ROS”; in [1] (T47D cells), “not in T47D cells”. Besides, the BAG1-mortalin interaction entry in data set [2] was “indeed decreased this interaction”. In addition, in the data set on p53/mortalin complex, the p53-mortalin interaction result is “decreased this interaction”. Also, the “effect on clonal expansion” value with HeLa was “did not have any effect”; with MCF-7 (MCF-7 cells, compared with HeLa, A549 and U2OS), “dose-dependently inhibited the clonal expansion”; with U2OS, “did not have any effect”. For the same compound, the IC50 is 3.5 ± 1.7 nM in the data set on MCF-7 (Homo sapiens, MCF7, Breast Cancer (MCF-7), ER+, inhibition of clonal expansion) and 5540 nM in the data set on MDA-MB231. The tumor volume result in the data set on MCF-7 tumors (setting [3]) is “significant decrease”. Further, in the data set with MCF-7 tumors (setting [3]), the tumor weight entry was “significant decrease”. The “tolerability, body weight” value with MCF-7 tumors (30 mg/kg body weight per os daily, 16 days) was “well tolerated and did not cause any weight loss or other signs of host toxicity”. Further, the “ERα level in tumor lysates” value with MCF-7 tumors (setting [4]) is “significant decrease in ERα level”. Moreover, the “p53 expression in tumor lysates” value in the data set on MCF-7 tumors (setting [4]) was “increase in p53 expression”. In addition, the ERα half-life result in the data set with ERα is given as “about 60 min”.
